This note sets out measurements from patent publication US20050227994A1, “Decomposition inhibitor for extracellular matrix of cartilage” (Shionogi & Co., Ltd., priority 2002, published 2005).

Like-named read-outs stand apart in the source and are kept apart here.

This assay concerns the target T1, MMP-13 (Homo sapiens, UniProt P45452).
T1 construct: catalytic domain (^104Tyr˜^267Gly) was amplified with RT-PCR; His-tag; enterokinase digestion-site; made in house
Nature of the assay: Assay for inhibitory activities on MMP-13. Format: biochemical. The protocol: In regard to MMP-13, mRNA was prepared from carcinoma cell SW1353 derived from human cartilage stimulate by IL-1, TNF and catalytic domain (^[…]) was amplified with RT-PCR. This was cloned in Escherichia. coli expression vector […] inserted with His-tag sequence and enterokinase digestion-site, induced and expressed by IPTG (Isopropyl-β-D-thiogalactopyranoside) and expressed in a insoluble fraction. Isolation of MMP-13 from an insoluble fraction was carried out by dissolving in modifier (6M urea) by a usual method and purification with metal chelate chromatography (Ni […] Sepharose). […] The enzymatic activity on MMP was analyzed by the method described in “C. Graham Knight, Frances Willenbrock and Gillian Murphy: A novel coumarin-labelled peptide for sensitive continuous assays of the matrix metalloproteinases: […] The substrate: MOCAc-[…] was purchased from Peptide Institute, Inc., Osaka, Japan.

Where [1] appears, read: catalytic domain, substrate MOCAc-Pro-Leu-Gly-Leu-A2Pr(DNP)-Ala-Arg-NH2, read-out: MMP-13 (IC50μM).

On to `Cc1ccc(-c2ccc(-c3ccc(S(=O)(=O)N[C@H](CC(C)C)C(=O)O)cc3)s2)cc1` [Compound K-6], for which, under setting [1], the IC50 turned out to be 0.225 µM.
Still for that read-out and setting: next, `CSCC[C@H](NS(=O)(=O)c1ccc(-c2ccc(SC)cc2)cc1)C(=O)O` [Compound E-8]: 0.0105 µM.
On to `CC(C)c1ccc(-c2nc(-c3ccc(S(=O)(=O)N[C@@H](C(=O)O)C(C)C)cc3)no2)cc1` [Compound C-4], for which the IC50 under setting [1] stood at 0.0057 µM.
On to `CN(C)c1ccc(-c2ccc(S(=O)(=O)N[C@H](Cc3c[nH]c4ccccc34)C(=O)O)s2)cc1` [Compound F-11], for which the IC50 under setting [1] stood at 0.00047 µM.
Still for that read-out and setting: then `Cc1ccc(C#Cc2ccc(S(=O)(=O)N[C@H](Cc3c[nH]c4cccc(O)c34)C(=O)O)s2)cc1` [Compound H-5], with 0.0328 µM; and `CC(C)c1ccc(-c2nc(-c3ccc(S(=O)(=O)N[C@H](C)C(=O)O)cc3)no2)cc1` [Compound C-3], with 0.0113 µM; and `CC(C)C[C@H](NS(=O)(=O)c1ccc(-c2ncc(-c3ccc(F)cc3)s2)cc1)C(=O)O` [Compound A-11], with 0.0114 µM.
On the same count and under the same terms, next, `CNc1ccc(-c2ccc(S(=O)(=O)N[C@@H](Cc3ccccc3)C(=O)O)s2)cc1` [Compound F-22]: 0.854 µM; `C[C@H](NS(=O)(=O)c1ccc(-c2ncc(-c3ccc4ccccc4c3)s2)cc1)C(=O)O` [Compound A-13]: 0.019 µM.
As to `CC(C)C[C@@H](NS(=O)(=O)c1ccc(C#Cc2ccc3ccccc3c2)s1)C(=O)O` [Compound H-10], the IC50 under setting [1] came out at 1.37 µM.
Same read-out and setting: next, `Cc1ccc(-c2ccc(-c3ccc(S(=O)(=O)N[C@H](Cc4ccccc4)C(=O)O)s3)s2)cc1` [Compound L-3]: 0.109 µM.
On the same count and under the same terms, then `CSc1ccc(-c2cnc(-c3ccc(S(=O)(=O)N[C@H](C(=O)O)C(C)C)cc3)s2)cc1` [Compound A-26], with 0.00045 µM; and `Cc1ccc(-c2ccc(S(=O)(=O)N[C@H](Cc3c[nH]c4ccccc34)C(=O)O)cc2)cc1` [Compound E-2], with 0.00877 µM; and `CC(C)C[C@@H](NS(=O)(=O)c1ccc(-c2ccc(N3CCCCC3)cc2)s1)C(=O)O` [Compound F-16], with 0.25 µM.
Still for that read-out and setting: then `CSc1ccc(-c2nnn(-c3ccc(S(=O)(=O)N[C@H](Cc4ccccc4)C(=O)O)cc3)n2)cc1` [Compound J-1], with 0.0485 µM; and `CSc1ccc(-c2ccc(S(=O)(=O)NC(Cc3ccccc3)C(=O)O)cc2)cc1` (stereo not drawn) [Compound E-30], with 0.0026 µM; and `CSc1ccc(-c2ccc(S(=O)(=O)NC(C(=O)O)c3cccs3)cc2)cc1` (stereo not drawn) [Compound E-13], with 0.0254 µM.
As to `Cc1ccc(C#Cc2ccc(S(=O)(=O)N[C@H](Cc3ccccc3)C(=O)O)cc2[N+](=O)[O-])cc1` [Compound G-4], under setting [1], the IC50 was greater than 10 µM.
Still for that read-out and setting: next, `CSc1ccc(-c2ccc(-c3ccc(S(=O)(=O)N[C@@H](C(=O)O)C(C)C)cc3)cc2)cc1` [Compound E-21]: 0.002 µM; `CCc1ccc(-c2nc(-c3ccc(S(=O)(=O)N[C@H](Cc4ccccc4)C(=O)O)s3)no2)cc1` [Compound N-8]: 0.182 µM; `Cc1ccc(-c2ccc(-c3ccc(S(=O)(=O)NCCCC(=O)O)cc3)s2)cc1` [Compound O-5]: greater than 10 µM.
The same measure, in the same setting: next, `O=C(O)[C@@H](Cc1ccccc1)NS(=O)(=O)c1ccc(C#Cc2cccc3ccccc23)s1` [Compound H-7]: greater than 10 µM.
In turn, `O=C(O)[C@@H](Cc1ccccc1)NS(=O)(=O)c1ccc(-c2ccc(C#Cc3ccc4ccccc4c3)cc2)cc1` [Compound E-29] yielded an IC50 of 0.00992 µM.
In the case of `O=C(O)[C@@H](Cc1ccccc1)NS(=O)(=O)c1ccc(-c2nnn(-c3ccc(Br)cc3)n2)cc1` [Compound I-1], the IC50 under setting [1] turned out to be 0.036 µM.
With `CSc1ccc(-c2ccc(S(=O)(=O)N[C@H](CC(=O)O)C(=O)O)cc2)cc1` [Compound E-9], the IC50 under setting [1] was determined as 0.0132 µM.
The same measure, in the same setting: next, `C#Cc1ccc(C#Cc2ccc(S(=O)(=O)N[C@H](Cc3c[nH]c4ccccc34)C(=O)O)cc2)cc1` [Compound G-2]: 0.015 µM; `CC(C)[C@@H](NS(=O)(=O)c1ccc(C#Cc2ccc(O)cc2)cc1)C(=O)O` [Compound G-3]: greater than 10 µM; `C[C@@H](NS(=O)(=O)c1ccc(C#Cc2ccc(F)c(F)c2)s1)C(=O)O` [Compound H-11]: 0.573 µM.
As for `CSc1ccc(-c2ccc(S(=O)(=O)N[C@H](CCC(=O)O)C(=O)O)cc2)cc1` [Compound E-10], the IC50 under setting [1] came to 0.0236 µM.
`CCc1ccc(-c2nc(-c3ccc(S(=O)(=O)N[C@@H](C(=O)O)C(C)C)cc3)no2)cc1` [Compound C-1]: the IC50 under setting [1] was 0.01 µM.
Same read-out and setting: then `NCCc1ccc(-n2nnc(-c3ccc(S(=O)(=O)N[C@H](Cc4ccccc4)C(=O)O)cc3)n2)cc1` [Compound I-3], with 0.029 µM; and `CSCC[C@H](NS(=O)(=O)c1ccc(-c2ccc(C(C)=O)cc2)s1)C(=O)O` [Compound F-25], with 0.106 µM; and `O=C(O)[C@@H](Cc1ccccc1)NS(=O)(=O)c1ccc(-c2nc(-c3ccc(Cl)cc3)no2)cc1` [Compound D-2], with 0.141 µM.
Same read-out and setting: then `CC(C)[C@H](NS(=O)(=O)c1ccc(-c2ncc(-c3ccc(Br)cc3)s2)cc1)C(=O)O` [Compound A-5], with 0.002 µM; and `CSc1ccc(-c2ccc(S(=O)(=O)NC(C)C(=O)O)cc2)cc1` (stereo not drawn) [Compound E-4], with 0.0209 µM; and `O=C(O)[C@H](Cc1ccccc1)NS(=O)(=O)c1ccc(-c2noc(-c3ccc4c(c3)OCO4)n2)cc1` [Compound C-8], with 0.049 µM.
As for `Cc1ccc(C#Cc2ccc(S(=O)(=O)Nc3cc(Cl)ccc3C(=O)O)s2)cc1` [Compound O-9], under setting [1], the IC50 is greater than 10 µM.
The same measure, in the same setting: next, `CC(C)[C@@H](NS(=O)(=O)c1ccc(-c2ccc(-c3ccc4ccccc4c3)cc2)cc1)C(=O)O` [Compound E-22]: 0.0139 µM; `O=C(O)[C@@H](Cc1ccccc1)NS(=O)(=O)c1ccc(-c2ncc(-c3ccc(Cl)cc3)o2)cc1` [Compound B-3]: 0.0443 µM.
`CCC(C)C(NS(=O)(=O)c1ccc(-c2ccc(SC)cc2)cc1)C(=O)O` (stereo not drawn) [Compound E-5]: the IC50 under setting [1] was found to be 0.0022 µM.
Same read-out and setting: then `Cc1ccc(-c2ccc(-c3ccc(S(=O)(=O)N[C@H](C(=O)O)C(C)C)s3)s2)cc1` [Compound L-5], with 0.134 µM; and `O=C(O)[C@H](Cc1ccccc1)NS(=O)(=O)c1ccc(-n2nnc(-c3ccc4ccccc4c3)n2)cc1` [Compound J-3], with greater than 10 µM.
As for `Cc1ccc(-c2ccc(S(=O)(=O)N[C@H](Cc3c[nH]c4ccccc34)C(=O)O)s2)cc1` [Compound F-10], the IC50 under setting [1] is 0.21 µM.
Still for that read-out and setting: next, `Cc1ccc(-c2ccc(-c3ccc(S(=O)(=O)N[C@@H](C(=O)O)C(C)C)s3)s2)cc1` [Compound L-1]: 0.031 µM; `O=C(O)C[C@@H](NS(=O)(=O)c1ccc(-c2ncc(-c3ccc4c(c3)OCO4)s2)cc1)C(=O)O` [Compound A-20]: 0.0183 µM.
On the same count and under the same terms, next, `CNc1ccc(-c2ccc(S(=O)(=O)N[C@H](Cc3ccccc3)C(=O)O)s2)cc1` [Compound F-12]: 0.0318 µM; `O=C(O)[C@@H](Cc1ccccc1)NS(=O)(=O)c1ccc(-c2ncc(-c3ccc(Cl)c(Cl)c3)o2)cc1` [Compound B-5]: 0.0169 µM.
For the compound `O=C(O)c1ccc(C#Cc2ccc(S(=O)(=O)N[C@H](Cc3ccccc3)C(=O)O)s2)cc1` [Compound H-3], the IC50 under setting [1] was found to be 6 µM.
The same measure, in the same setting: then `O=C(O)[C@@H](Cc1ccccc1)NS(=O)(=O)c1ccc(C#Cc2ccc3ccccc3c2)s1` [Compound H-2], with greater than 10 µM; and `O=C(O)[C@@H](Cc1ccccc1)NS(=O)(=O)c1ccc(C#Cc2ccc3ccccc3c2)cc1` [Compound G-5], with greater than 10 µM.
As for `CSc1ccc(-c2ccc(S(=O)(=O)N[C@@H](CCC(=O)O)C(=O)O)cc2)cc1` [Compound E-11], the IC50 under setting [1] turned out to be 0.0091 µM.
As for `Cc1ccc(-c2ccc(-c3ccc(S(=O)(=O)N[C@H](C)C(=O)O)cc3)s2)cc1` [Compound K-3], the IC50 under setting [1] was 0.095 µM.
On to `C[C@@H](NS(=O)(=O)c1ccc(-c2ncc(-c3ccc4c(c3)OCO4)s2)cc1)C(=O)O` [Compound A-17], for which the IC50 under setting [1] amounted to 0.0065 µM.
The same measure, in the same setting: next, `CSCC[C@@H](NS(=O)(=O)c1ccc(-c2ncc(-c3ccc4c(c3)OCO4)s2)cc1)C(=O)O` [Compound A-19]: 0.0092 µM; `O=C(O)[C@@H](Cc1c[nH]c2ccccc12)NS(=O)(=O)c1ccc(-c2ccc(F)cc2)cc1` [Compound E-27]: 0.036 µM; `CSc1ccc(-c2ccc(-c3ccc(S(=O)(=O)N[C@@H](C(=O)O)C(C)C)cc3)s2)cc1` [Compound K-5]: 0.00526 µM.
Take `CSc1ccc(-c2cnc(-c3ccc(S(=O)(=O)N[C@@H](C)C(=O)O)cc3)s2)cc1` [Compound A-27]: the IC50 under setting [1] was determined as 0.001 µM.
Still for that read-out and setting: then `O=C(O)[C@@H](Cc1ccccc1)NS(=O)(=O)c1ccc(C#CC2=CCCCC2)s1` [Compound H-14], with 0.153 µM; and `C[C@@H](NS(=O)(=O)c1ccc(-c2ccc(-c3ccc4ccccc4c3)cc2)cc1)C(=O)O` [Compound E-28], with 0.012 µM.
Same read-out and setting: next, `O=C(O)[C@@H](Cc1ccccc1)NS(=O)(=O)c1ccc(-c2ncc(-c3ccc(Br)cc3)s2)cc1` [Compound A-6]: 0.0029 µM.
With `CSc1ccc(-c2ccc(S(=O)(=O)NC(Cc3ccccc3)C(=O)O)cc2)cc1` (stereo not drawn) [Compound E-6], under setting [1], the IC50 is 0.0026 µM.
On the same count and under the same terms, next, `CSCC[C@@H](NS(=O)(=O)c1ccc(-c2noc(-c3ccc(C(C)C)cc3)n2)cc1)C(=O)O` [Compound C-6]: 0.018 µM; `CC(C)C[C@H](NS(=O)(=O)c1ccc(-c2ncc(-c3ccc(Cl)cc3)s2)cc1)C(=O)O` [Compound A-9]: 0.0065 µM.
